Values of other authors, collected in patent publication US20060165806A1, “Nanoparticulate candesartan formulations” (Elan Pharma International Limited, priority 2005, published 2006).

Key:
ACE (kininase II) = ACE (kininase II) (Homo sapiens, UniProt P12821)
AT1 receptor = target: T1, AT1 receptor (Homo sapiens, UniProt P30556); conditions: AT1 versus AT2 receptor
T1 sequence (P30556 1-359): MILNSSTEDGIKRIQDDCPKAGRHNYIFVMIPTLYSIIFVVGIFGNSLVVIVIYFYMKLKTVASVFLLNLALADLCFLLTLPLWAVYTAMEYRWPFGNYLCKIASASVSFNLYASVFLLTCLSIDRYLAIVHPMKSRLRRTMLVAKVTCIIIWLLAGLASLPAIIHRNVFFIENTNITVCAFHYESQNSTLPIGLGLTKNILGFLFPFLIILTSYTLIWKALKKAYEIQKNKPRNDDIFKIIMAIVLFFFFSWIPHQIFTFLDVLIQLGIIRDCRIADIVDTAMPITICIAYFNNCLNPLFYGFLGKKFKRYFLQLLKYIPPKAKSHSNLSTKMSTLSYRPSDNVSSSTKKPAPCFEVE

[1] = test system: other hormone receptors or ion channels known to be important in cardiovascular regulation; conditions: receptors and channels important in cardiovascular regulation

Chain of ACE (kininase II) (P12821 30-1306, species assumed): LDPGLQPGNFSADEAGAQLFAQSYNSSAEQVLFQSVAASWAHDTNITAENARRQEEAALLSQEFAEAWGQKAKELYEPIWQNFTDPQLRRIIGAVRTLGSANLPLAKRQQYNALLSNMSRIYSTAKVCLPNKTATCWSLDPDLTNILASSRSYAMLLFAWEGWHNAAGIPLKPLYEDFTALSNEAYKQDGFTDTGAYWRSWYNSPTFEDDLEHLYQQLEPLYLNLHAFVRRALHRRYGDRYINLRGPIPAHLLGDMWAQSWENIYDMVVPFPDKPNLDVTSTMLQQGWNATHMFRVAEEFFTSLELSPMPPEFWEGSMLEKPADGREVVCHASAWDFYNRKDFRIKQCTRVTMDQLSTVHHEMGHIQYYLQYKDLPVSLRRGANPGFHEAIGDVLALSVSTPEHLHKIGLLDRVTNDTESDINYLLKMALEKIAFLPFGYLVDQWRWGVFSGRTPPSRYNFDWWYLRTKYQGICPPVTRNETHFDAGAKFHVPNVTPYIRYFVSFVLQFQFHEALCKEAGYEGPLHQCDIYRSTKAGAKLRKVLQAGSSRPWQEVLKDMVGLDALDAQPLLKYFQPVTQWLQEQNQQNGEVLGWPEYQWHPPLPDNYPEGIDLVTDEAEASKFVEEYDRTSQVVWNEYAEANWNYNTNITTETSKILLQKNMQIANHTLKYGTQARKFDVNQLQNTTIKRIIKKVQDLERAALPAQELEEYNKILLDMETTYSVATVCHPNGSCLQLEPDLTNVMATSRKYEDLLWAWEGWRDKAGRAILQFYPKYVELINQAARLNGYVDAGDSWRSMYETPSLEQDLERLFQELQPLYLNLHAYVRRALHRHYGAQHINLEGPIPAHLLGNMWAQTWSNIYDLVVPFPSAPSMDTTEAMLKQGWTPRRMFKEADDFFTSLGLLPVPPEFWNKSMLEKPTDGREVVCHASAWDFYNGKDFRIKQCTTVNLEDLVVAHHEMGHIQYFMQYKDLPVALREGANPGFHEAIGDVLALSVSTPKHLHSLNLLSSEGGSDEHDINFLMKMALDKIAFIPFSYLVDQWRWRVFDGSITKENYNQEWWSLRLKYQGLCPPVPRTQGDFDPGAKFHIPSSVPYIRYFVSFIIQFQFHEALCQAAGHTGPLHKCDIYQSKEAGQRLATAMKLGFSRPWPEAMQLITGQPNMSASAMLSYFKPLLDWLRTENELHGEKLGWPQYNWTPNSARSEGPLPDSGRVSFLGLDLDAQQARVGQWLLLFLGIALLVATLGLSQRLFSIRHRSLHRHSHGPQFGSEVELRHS

Row | SMILES | solubility in water | inhibition of ACE (kininase II) (ACE (kininase II)) | greater affinity for the AT1 receptor than for the AT2 receptor (AT1 receptor) | binding to or blocking of other hormone receptors or ion channels [1]
1 | CCOc1nc2cccc(C(=O)OC(C)OC(=O)OC3CCCCC3)c2n1Cc1ccc(-c2ccccc2-c2nnn[nH]2)cc1 (racemic) [Candesartan cilexitil, (“)-1-Hydroxyethyl 2-ethoxy-1-[p-(o-1H-tetrazol-5-ylphenyl)benzyl]-7-benzimidazolecarboxylate, cyclohexyl carbonate(ester)] | practically insoluble |  |  | 
2 | CCOc1nc2cccc(C(=O)O)c2n1Cc1ccc(-c2ccccc2-c2nnn[nH]2)cc1 [Candesartan] |  | does not inhibit | > 10,000 fold | does not bind to or block
